Patent publication US11013709B2, “Highly purified eicosapentaenoic acid, as free fatty acid, reduces fecal calprotectin levels and prevents clinical relapse in ulcerative colitis patients” (S.L.A. PHARMA AG, priority 2017, dated 2021)

Tests used:
fecal calprotectin (FC) = assay: Double-blind, randomized, placebo-controlled study in UC patients: fecal calprotectin level (ELISA, Calprest); format: in vivo, human; details: over a six month period of administering highly purified EPA-FFA
Description: The present invention provides for a double-blind, randomized, placebo-controlled study with UC patients with fecal calprotectin level ≥150 μg/g and in stable therapy for at least the 3 previous months. Each subject, receives either 2 grams daily of EPA-FFA (2 dosages of 500 mg sustained-release capsules, twice a day) or placebo (2 dosages of 500 mg sustained-release capsules of capric and caprylic acids, twice daily) for a 6 month period. At baseline, the patients undergo a total colonoscopy. Fecal calprotectin levels, clinical and laboratory assessments are performed at baseline, 3 and 6 months or at the time of clinical relapse, which has been defined as the occurrence of symptoms accompanied by an increase in the partial Mayo score ≥2 and/or requiring a change in therapy. […]
The primary endpoint is the proportion of patients achieving a 100-point reduction (100 μg/g or greater) from baseline in FC level at 6 months. […] A combined endpoint consisting of the number of patients achieving the primary and secondary endpoints is also calculated. […]
A fecal sample from the first bowel movement in the morning is stored in a refrigerator at 2-8° C. for a maximum of 24 h before performing the analysis. Quantification of FC levels is carried out using a quantitative, enzyme-linked immunosorbent assay (Calprest; Eurospital, Trieste, Italy), according to the manufacturers' instructions. […]

[1] = Safety and tolerability in placebo-controlled trial of UC patients; format: in vivo, human; details: 60 patients with UC treated for 6 months
Description: The present invention provides for a double-blind, randomized, placebo-controlled study with UC patients with fecal calprotectin level ≥150 μg/g and in stable therapy for at least the 3 previous months. Each subject, receives either 2 grams daily of EPA-FFA (2 dosages of 500 mg sustained-release capsules, twice a day) or placebo (2 dosages of 500 mg sustained-release capsules of capric and caprylic acids, twice daily) for a 6 month period. At baseline, the patients undergo a total colonoscopy. Fecal calprotectin levels, clinical and laboratory assessments are performed at baseline, 3 and 6 months or at the time of clinical relapse, which has been defined as the occurrence of symptoms accompanied by an increase in the partial Mayo score ≥2 and/or requiring a change in therapy.
Patients who satisfied the inclusion criteria undergo blood tests, including C-reactive protein (CRP) (normal upper limit 5 mg/L) and a total colonoscopy with multiple biopsies at baseline. They are then randomized 1:1 to receive either 2 g daily of EPA-FFA (2×500 mg gastro-resistant sustained-release capsules, twice-daily) or 2 g of placebo (2×500 mg gastro-resistant sustained-release capsules of capric and caprylic acids that are triglycerides of the fractionated plant fatty acids, twice-daily) for a 6-month period. The entire study team are blinded to the treatment assignment.

[2] = cited from earlier work

CC/C=C\C/C=C\C/C=C\C/C=C\C/C=C\CCCC(=O)O [EPA-FFA, eicosapentaenoic acid]
reduction of FC (fecal calprotectin (FC)): at least 100 μg/g
serious adverse events [1]: no serious adverse events
incorporation of EPA into plasma phospholipids and red blood cell membranes ([2]; 2 g daily for 8 weeks, patients with IBD and healthy volunteers): consistently incorporated into plasma phospholipids and red blood cell membranes
metabolic conversion [2]: quickly converted into docosahexaenoic acid via docosapentaenoic acid
